Measured values from US12428406B2 (PMV Pharmaceuticals, Inc., priority 2019, dated 2025).

Target: T1, p53 Y220C (Homo sapiens, UniProt P04637, Y220C)
T1 construct: The recombinant protein was a truncation mutant containing only amino acids 94-312 of p53; made in house; host or cells: E. coli
Assay: In vitro DNA binding activity assay (HTRF / TR-FRET): stabilization of p53 Y220C and increase of its DNA binding activity
Assay type: biochemical
Details: recombinant His-tagged p53 Y220C DNA binding domain (aa 94-312), biotin-labeled consensus DNA, incubated at 27° C. or 29° C. for 60 min
Method in brief: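 Stabilization of the mutant is inferred from increased binding of His-tagged p53 Y220C to a biotin-labeled consensus DNA, detected by HTRF with europium-streptavidin and APC-anti-His antibody. The concentration giving a 50% rise over compound-free binding is reported as SC150.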

T1 sequence (P04637 94-312, change not shown): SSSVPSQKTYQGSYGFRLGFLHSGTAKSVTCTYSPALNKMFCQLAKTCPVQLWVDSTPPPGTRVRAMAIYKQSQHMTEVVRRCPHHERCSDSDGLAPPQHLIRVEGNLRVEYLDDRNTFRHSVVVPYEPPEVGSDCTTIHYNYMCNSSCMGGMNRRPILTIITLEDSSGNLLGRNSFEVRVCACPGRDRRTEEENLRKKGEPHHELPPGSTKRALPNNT

| Compound | SC150 (concentration of the compound required to increase the DNA binding activity by 50%) |
| --- | --- |
| COc1cc(S(=O)(=O)N2CCOCC2)ccc1NCC#Cc1cc2c(NC3CCNCC3)cccc2n1CC(F)(F)F [Compound 459A, 2-(3-{[2-methoxy-4-(morpholine-4-sulfonyl)phenyl]amino}prop-1-yn-1-yl)-N-(piperidin-4-yl)-1-(2,2,2-trifluoroethyl)-1H-indol-4-amine] | + (+ = 0 μM ≤ SC150 < 0.05 μM) |
| COc1cc(S(=O)(=O)N(C)C)ccc1NCC#Cc1cc2c(NC3CCNCC3)cccc2n1CC(F)(F)F [Compound 460A] | + (+ = 0 μM ≤ SC150 < 0.05 μM) |
| CS(=O)(=O)c1ccc(NCC#Cc2cc3c(NC4CCNCC4)cccc3n2CC(F)(F)F)c(OCC#N)c1 [Compound 461A, 2-{5-methanesulfonyl-2-[(3-{4-[(piperidin-4-yl)amino]-1-(2,2,2-trifluoroethyl)-1H-indol-2-yl}prop-2-yn-1-yl)amino]phenoxy}acetonitrile] | + (+ = 0 μM ≤ SC150 < 0.05 μM) |
| COc1cc(S(C)(=O)=O)ccc1NCC#Cc1cc2c(N[C@@H]3CCCNC3)cccc2n1CC(F)(F)F [Compound 463A, 2-{3-[(4-methanesulfonyl-2-methoxyphenyl)amino]prop-1-yn-1-yl}-N-[(3R)-piperidin-3-yl]-1-(2,2,2-trifluoroethyl)-1H-indol-4-amine] | + (+ = 0 μM ≤ SC150 < 0.05 μM) |
| COc1cc(S(N)(=O)=O)ccc1NCC#Cc1cc2c(N[C@H]3CCN[C@@H](C)C3)cccc2n1CC(F)(F)F [Compound 464A, 3-methoxy-4-{[3-(4-{[(2S,4S)-2-methylpiperidin-4-yl]amino}-1-(2,2,2-trifluoroethyl)-1H-indol-2-yl)prop-2-yn-1-yl]amino} benzene-1-sulfonamide] | + (+ = 0 μM ≤ SC150 < 0.05 μM) |
| CN1CCC(Nc2cccc3c2cc(C#CCNc2ccc(S(C)(=O)=O)cc2OC(F)(F)F)n3CC(F)(F)F)CC1 [Compound 466A] | + (+ = 0 μM ≤ SC150 < 0.05 μM) |
| COc1cc(C(C)(C)C#N)ncc1NCC#Cc1cc2c(NC3CCN(C)CC3)cccc2n1CC(F)(F)F [Compound 468A, 2-{4-methoxy-5-[(3-{4-[(1-methylpiperidin-4-yl)amino]-1-(2,2,2-trifluoroethyl)-1H-indol-2-yl}prop-2-yn-1-yl)amino]pyridin-2-yl}-2-methylpropanenitrile] | + (+ = 0 μM ≤ SC150 < 0.05 μM) |
| COc1cc(S(=O)(=O)Nc2ccon2)ccc1NCC#Cc1cc2c(NC3CCN(C)CC3)cccc2n1CC(F)(F)F [Compound 469A, 3-methoxy-4-[(3-{4-[(1-methylpiperidin-4-yl)amino]-1-(2,2,2-trifluoroethyl)-1H-indol-2-yl}prop-2-yn-1-yl)amino]-N-(1,2-oxazol-3-yl)benzene-1-sulfonamide] | + (+ = 0 μM ≤ SC150 < 0.05 μM) |
| COc1cc(S(=O)(=O)NC2CCOCC2)ccc1NCC#Cc1cc2c(NC3CCN(C)CC3)cccc2n1CC(F)(F)F [Compound 470A, 3-methoxy-4-[(3-{4-[(1-methylpiperidin-4-yl)amino]-1-(2,2,2-trifluoroethyl)-1H-indol-2-yl}prop-2-yn-1-yl)amino]-N-(oxan-4-yl)benzene-1-sulfonamide] | + (+ = 0 μM ≤ SC150 < 0.05 μM) |
| COc1cc(S(=O)(=O)Nc2cc(C)on2)ccc1NCC#Cc1cc2c(NC3CCN(C)CC3)cccc2n1CC(F)(F)F [Compound 471A, 3-methoxy-N-(5-methyl-1,2-oxazol-3-yl)-4-[(3-{4-[(1-methylpiperidin-4-yl)amino]-1-(2,2,2-trifluoroethyl)-1H-indol-2-yl}prop-2-yn-1-yl)amino]benzene-1-sulfonamide] | + (+ = 0 μM ≤ SC150 < 0.05 μM) |
| COc1cc(S(=O)(=O)N(C)CCO)ccc1NCC#Cc1cc2c(NC3CCN(C)CC3)cccc2n1CC(F)(F)F [Compound 472A, N-(2-hydroxyethyl)-3-methoxy-N-methyl-4-[(3-{4-[(1-methylpiperidin-4-yl)amino]-1-(2,2,2-trifluoroethyl)-1H-indol-2-yl}prop-2-yn-1-yl)amino]benzene-1-sulfonamide] | + (+ = 0 μM ≤ SC150 < 0.05 μM) |
| COc1cc(S(=O)(=O)N(C)C)ccc1NCC#Cc1cc2c(NC3CCN(C)CC3)cccc2n1CC(F)(F)F [Compound 473A, 3-methoxy-N,N-dimethyl-4-[(3-{4-[(1-methylpiperidin-4-yl)amino]-1-(2,2,2-trifluoroethyl)-1H-indol-2-yl}prop-2-yn-1-yl)amino]benzene-1-sulfonamide] | + (+ = 0 μM ≤ SC150 < 0.05 μM) |
| COc1cc(S(N)(=O)=O)ccc1NCC#Cc1cc2c(NC3CCN(C)CC3)cc(F)cc2n1CC(F)(F)F [Compound 474A, 4-[(3-{6-fluoro-4-[(1-methylpiperidin-4-yl)amino]-1-(2,2,2-trifluoroethyl)-1H-indol-2-yl}prop-2-yn-1-yl)amino]-3-methoxybenzene-1-sulfonamide] | + (+ = 0 μM ≤ SC150 < 0.05 μM) |
| COc1cc(S(C)(=O)=O)ccc1NCC#Cc1cc2c(NC3CCN(C)CC3)cc(F)cc2n1CC(F)(F)F [Compound 475A, 6-fluoro-2-{3-[(4-methanesulfonyl-2-methoxyphenyl)amino]prop-1-yn-1-yl}-N-(1-methylpiperidin-4-yl)-1-(2,2,2-trifluoroethyl)-1H-indol-4-amine] | +++ (+++ = 0.1 μM ≤ SC150 < 0.2 μM) |
| COCCN(C)S(=O)(=O)c1ccc(NCC#Cc2cc3c(NC4CCN(C)CC4)cccc3n2CC(F)(F)F)c(OC)c1 [Compound 477A, 3-methoxy-N-(2-methoxyethyl)-N-methyl-4-[(3-{4-[(1-methylpiperidin-4-yl)amino]-1-(2,2,2-trifluoroethyl)-1H-indol-2-yl}prop-2-yn-1-yl)amino]benzene-1-sulfonamide] | + (+ = 0 μM ≤ SC150 < 0.05 μM) |
| COc1cc(S(C)(=O)=O)ccc1N(C)CC#Cc1cc2c(NC3CCN(C)CC3)cccc2n1CC(F)(F)F [Compound 478A, 2-{3-[(4-methanesulfonyl-2-methoxyphenyl) (methyl)amino]prop-1-yn-1-yl}-N-(1-methylpiperidin-4-yl)-1-(2,2,2-trifluoroethyl)-1H-indol-4-amine] | ++++ (++++ = 0.2 μM ≤ SC150 < 1 μM) |
| COc1cc(S(=O)(=O)N2CCN(C(C)=O)CC2)ccc1NCC#Cc1cc2c(NC3CCN(C)CC3)cccc2n1CC(F)(F)F [Compound 479A] | + (+ = 0 μM ≤ SC150 < 0.05 μM) |
| COc1cc(S(=O)(=O)N2CCOCC2)ccc1NCC#Cc1cc2c(NC3CCN(C)CC3)cccc2n1CC(F)(F)F [Compound 480A, 2-(3-{[2-methoxy-4-(morpholine-4-sulfonyl)phenyl]amino}prop-1-yn-1-yl)-N-(1-methylpiperidin-4-yl)-1-(2,2,2-trifluoroethyl)-1H-indol-4-amine] | + (+ = 0 μM ≤ SC150 < 0.05 μM) |
| CNC(=O)c1ccc(NCC#Cc2cc3c(NC4CCN(C)CC4)cccc3n2CC(F)(F)F)c(OC)c1 [Compound 482A, 3-methoxy-N-methyl-4-[(3-{4-[(1-methylpiperidin-4-yl)amino]-1-(2,2,2-trifluoroethyl)-1H-indol-2-yl}prop-2-yn-1-yl)amino]benzamide] | + (+ = 0 μM ≤ SC150 < 0.05 μM) |
| COc1cc(S(=O)(=O)N(CCO)CCO)ccc1NCC#Cc1cc2c(NC3CCN(C)CC3)cccc2n1CC(F)(F)F [Compound 483A, N,N-bis(2-hydroxyethyl)-3-methoxy-4-[(3-{4-[(1-methylpiperidin-4-yl)amino]-1-(2,2,2-trifluoroethyl)-1H-indol-2-yl}prop-2-yn-1-yl)amino]benzene-1-sulfonamide] | + (+ = 0 μM ≤ SC150 < 0.05 μM) |
| CNS(=O)(=O)c1ccc(NCC#Cc2cc3c(NC4CCN(C)CC4)cccc3n2CC(F)(F)F)c(OC)c1 [Compound 484A, 3-methoxy-N-methyl-4-[(3-{4-[(1-methylpiperidin-4-yl)amino]-1-(2,2,2-trifluoroethyl)-1H-indol-2-yl}prop-2-yn-1-yl)amino]benzene-1-sulfonamide] | + (+ = 0 μM ≤ SC150 < 0.05 μM) |
| COc1cc(S(=O)(=O)N2CCN(C)CC2)ccc1NCC#Cc1cc2c(NC3CCN(C)CC3)cccc2n1CC(F)(F)F [Compound 485A, 2-[3-({2-methoxy-4-[(4-methylpiperazin-1-yl)sulfonyl]phenyl}amino)prop-1-yn-1-yl]-N-(1-methylpiperidin-4-yl)-1-(2,2,2-trifluoroethyl)-1H-indol-4-amine] | + (+ = 0 μM ≤ SC150 < 0.05 μM) |
| CN1CCC(Nc2cccc3c2cc(C#CCNc2ccc(S(C)(=O)=O)cc2O)n3CC(F)(F)F)CC1 [Compound 486A, 5-methanesulfonyl-2-[(3-{4-[(1-methylpiperidin-4-yl)amino]-1-(2,2,2-trifluoroethyl)-1H-indol-2-yl}prop-2-yn-1-yl)amino]phenol] | + (+ = 0 μM ≤ SC150 < 0.05 μM) |
